One test concerns the target T1, JAK2 (Homo sapiens, UniProt O60674).
T1 construct: host or cells: baculovirus expression system
As to the kind of experiment: Recombinant Human JAK2 Kinase Assay (TRF). The test is classed as biochemical. The settings on record: read-out: JAK2 Potency. On the procedure: Compounds were tested for their ability to inhibit the kinase activity of baculovirus-expressed JAK2 using the TRF detection system. […] The plates were coated first with 100 μL/well of 10 μg/mL Neutravidin (Pierce #31000, Rockford, Ill.) in TBS at 37° C. for 2 hours, followed by 100 μL/well of 1 μg/mL 15-mer peptide substrate (biotinyl-amino-hexanoyl-[…]-amide, Infinity Biotech Research and Resource, Aston, Pa.) at 37° C. for another hour. The JAK2 assay mixture (total volume=100 μL/well) consisting of 20 mM HEPES (pH 7.2), 0.2 μM ATP, 1 mM MnCl2, 0.1% BSA, and test compound (diluted in DMSO; 2.5% DMSO final in assay) was then added to the assay plate. Enzyme (15 ng/ml JAK2) was added and the reaction was allowed to proceed at room temperature for 20 minutes. Detection of the phosphorylated product was performed by adding 100 μL/well of Eu—N1 labeled PY100 antibody (PerkinElmer Life Sciences #AD0041, Boston, Mass.).

In another test the target is T2, ALK (Homo sapiens, UniProt Q9UM73).
T2 construct: host or cells: baculovirus expression system
The test is described as follows: ALK Kinase Assay (ELISA/TRF, PLC-γ substrate). The test is classed as biochemical. The following applies: read-out: ALK Potency. An outline of the steps: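 IC50 values derive from percent inhibition plotted against log10 compound concentration and fitted to a variable-slope sigmoidal equation. The underlying reaction used 30 ng/ml ALK acting on immobilized PLC-γ (10 μg/mL in TBS) at 37° C for 15 minutes, read with Eu-N1 PT66 antibody.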

Where [1] appears, read: JAK2 kinase inhibition, 0.2 μM ATP.
[2] abbreviates: ALK kinase inhibition, 1 μM ATP.

Results on 27 molecules are retold here after patent publication US8471005B2 (Cephalon, Inc., priority 2008, dated 2013).

Each structure is given as a SMILES string. Read-outs that look alike come from different tables or passages of the source. Bounds are passed on as bounds.

T2 sequence (Q9UM73 19-1620): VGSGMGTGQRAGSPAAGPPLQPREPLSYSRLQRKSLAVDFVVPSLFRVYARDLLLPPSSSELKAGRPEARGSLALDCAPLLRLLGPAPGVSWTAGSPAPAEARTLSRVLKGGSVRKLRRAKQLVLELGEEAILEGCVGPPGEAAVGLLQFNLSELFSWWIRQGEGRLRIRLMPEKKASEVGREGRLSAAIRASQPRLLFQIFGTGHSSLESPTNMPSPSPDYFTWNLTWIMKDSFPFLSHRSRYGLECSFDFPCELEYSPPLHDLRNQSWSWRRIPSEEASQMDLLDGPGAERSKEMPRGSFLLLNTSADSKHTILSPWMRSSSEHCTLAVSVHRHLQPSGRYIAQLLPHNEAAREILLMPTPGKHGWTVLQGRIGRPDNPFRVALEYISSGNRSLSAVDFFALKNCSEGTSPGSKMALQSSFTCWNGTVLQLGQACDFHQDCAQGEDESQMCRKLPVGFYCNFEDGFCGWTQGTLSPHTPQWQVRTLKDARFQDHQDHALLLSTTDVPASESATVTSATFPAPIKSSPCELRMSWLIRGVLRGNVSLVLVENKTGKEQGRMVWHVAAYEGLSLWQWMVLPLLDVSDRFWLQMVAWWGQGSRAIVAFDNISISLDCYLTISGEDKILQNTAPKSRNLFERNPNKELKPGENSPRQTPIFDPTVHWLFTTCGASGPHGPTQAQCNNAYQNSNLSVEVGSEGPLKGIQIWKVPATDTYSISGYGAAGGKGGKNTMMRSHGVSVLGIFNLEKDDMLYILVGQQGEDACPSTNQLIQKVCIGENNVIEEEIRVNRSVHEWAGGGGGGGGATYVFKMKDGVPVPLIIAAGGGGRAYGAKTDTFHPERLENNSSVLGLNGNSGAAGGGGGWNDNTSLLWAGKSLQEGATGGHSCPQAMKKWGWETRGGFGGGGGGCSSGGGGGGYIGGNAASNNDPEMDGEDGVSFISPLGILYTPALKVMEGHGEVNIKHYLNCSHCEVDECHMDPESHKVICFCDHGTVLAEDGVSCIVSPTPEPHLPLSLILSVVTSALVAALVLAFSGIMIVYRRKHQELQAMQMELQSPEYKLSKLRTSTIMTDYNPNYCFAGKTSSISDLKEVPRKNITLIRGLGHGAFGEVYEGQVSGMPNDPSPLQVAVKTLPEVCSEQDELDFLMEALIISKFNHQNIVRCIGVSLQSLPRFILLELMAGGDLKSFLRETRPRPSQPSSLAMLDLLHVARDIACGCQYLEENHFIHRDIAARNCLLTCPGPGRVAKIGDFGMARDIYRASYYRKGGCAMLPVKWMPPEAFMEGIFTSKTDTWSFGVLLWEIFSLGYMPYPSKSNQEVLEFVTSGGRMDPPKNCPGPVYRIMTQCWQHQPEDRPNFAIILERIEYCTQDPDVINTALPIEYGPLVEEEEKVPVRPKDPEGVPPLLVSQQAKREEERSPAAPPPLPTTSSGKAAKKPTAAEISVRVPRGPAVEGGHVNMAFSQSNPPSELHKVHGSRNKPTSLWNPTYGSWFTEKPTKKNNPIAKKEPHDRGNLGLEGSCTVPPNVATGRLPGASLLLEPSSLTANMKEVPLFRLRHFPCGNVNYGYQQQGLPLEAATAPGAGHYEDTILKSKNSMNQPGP
T1 sequence (O60674 whole entry): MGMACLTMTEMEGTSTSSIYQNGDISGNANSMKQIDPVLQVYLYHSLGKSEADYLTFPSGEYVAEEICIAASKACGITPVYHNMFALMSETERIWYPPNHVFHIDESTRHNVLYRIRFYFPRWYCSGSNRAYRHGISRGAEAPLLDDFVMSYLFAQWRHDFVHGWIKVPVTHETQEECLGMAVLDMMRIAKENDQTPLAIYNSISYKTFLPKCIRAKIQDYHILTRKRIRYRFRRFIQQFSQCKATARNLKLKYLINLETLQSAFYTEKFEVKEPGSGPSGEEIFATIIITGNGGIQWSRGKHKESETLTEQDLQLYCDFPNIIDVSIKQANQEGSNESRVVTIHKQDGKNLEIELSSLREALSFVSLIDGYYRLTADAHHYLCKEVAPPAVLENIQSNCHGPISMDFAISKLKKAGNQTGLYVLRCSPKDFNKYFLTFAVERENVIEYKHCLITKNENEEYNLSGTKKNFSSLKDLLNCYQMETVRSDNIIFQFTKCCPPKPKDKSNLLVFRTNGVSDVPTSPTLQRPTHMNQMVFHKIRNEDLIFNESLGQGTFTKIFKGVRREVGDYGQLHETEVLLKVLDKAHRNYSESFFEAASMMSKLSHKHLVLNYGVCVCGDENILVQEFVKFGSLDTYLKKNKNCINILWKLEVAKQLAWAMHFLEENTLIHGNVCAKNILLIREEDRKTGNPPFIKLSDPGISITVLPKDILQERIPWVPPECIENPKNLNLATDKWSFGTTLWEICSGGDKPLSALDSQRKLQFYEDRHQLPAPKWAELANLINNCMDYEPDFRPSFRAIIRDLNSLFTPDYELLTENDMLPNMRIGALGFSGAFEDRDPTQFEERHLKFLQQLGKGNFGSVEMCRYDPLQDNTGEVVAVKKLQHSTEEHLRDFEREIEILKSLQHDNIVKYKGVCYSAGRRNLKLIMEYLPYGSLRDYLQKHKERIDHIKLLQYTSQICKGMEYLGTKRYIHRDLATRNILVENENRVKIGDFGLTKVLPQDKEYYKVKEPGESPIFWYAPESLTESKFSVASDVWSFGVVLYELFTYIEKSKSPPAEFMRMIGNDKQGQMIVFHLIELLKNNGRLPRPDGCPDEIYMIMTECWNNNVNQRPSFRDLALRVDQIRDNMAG

Consider `COc1cc(C2CCN(C(=O)C3CCN3)CC2)ccc1Nc1ncc2ccc(-c3ccccc3OC)n2n1` (racemic) [Example 862, (±)-Azetidin-2-yl-(4-{3-methoxy-4-[7-(2-methoxy-phenyl)-pyrrolo[2,1-f][1,2,4]triazin-2-ylamino]-phenyl}-piperidin-1-yl)-methanone], for which the figures for the IC50 on JAK2 (setting [1]) and at ALK (setting [2]) were 0.1 to 1 µM and under 0.1 µM, respectively.

Take `COc1cc(C2CCN(C(=O)C3CCN3)CC2)ccc1Nc1ncc2ccc(-c3ccccc3N(C)S(C)(=O)=O)n2n1` (racemic) [Example 863, (±)-N-[2-(2-{4-[1-(Azetidine-2-carbonyl)-piperidin-4-yl]-2-methoxy-phenylamino}-pyrrolo[2,1-f][1,2,4]triazin-7-yl)-phenyl]-N-methyl-methanesulfonamide]: the IC50 on JAK2 (setting [1]) is 1 to 10 µM; on ALK (setting [2]), under 0.1 µM.

As to `COc1cc(C2CCN(CC3CCN3C)CC2)ccc1Nc1ncc2ccc(-c3ccccc3N(C)S(C)(=O)=O)n2n1` (racemic) [Example 871, (±)-N-[2-(2-{2-Methoxy-4-[1-(1-methyl-azetidin-2-ylmethyl)-piperidin-4-yl]-phenylamino}-pyrrolo[2,1-f][1,2,4]triazin-7-yl)-phenyl]-N-methyl-methanesulfonamide], the IC50 at JAK2 (setting [1]) is 1 to 10 µM; on ALK (setting [2]) it was under 0.1 µM.

As to `COc1cc(N2CCCC(N3CCN(C)CC3)C2)ccc1Nc1ncc2ccc(-c3ccccc3OC)n2n1` (single isomer, unassigned) [Example 1441, {2-Methoxy-4-[3-(4-methyl-piperazin-1-yl)-piperidin-1-yl]-phenyl}-[7-(2-methoxy-phenyl)-pyrrolo[2,1-f][1,2,4]triazin-2-yl]-amine], the IC50 on JAK2 (JAK2 Kinase Inhibition) and at ALK (ALK Kinase Inhibition) was under 0.1 µM each time.

`COc1cc(N2CCCC(N3CCN(C)CC3)C2)ccc1Nc1ncc2ccc(-c3ccccc3OC)n2n1` (single isomer, unassigned) [Example 1442, {2-Methoxy-4-[3-(4-methyl-piperazin-1-yl)-piperidin-1-yl]-phenyl}-[7-(2-methoxy-phenyl)-pyrrolo[2,1-f][1,2,4]triazin-2-yl]-amine]: the figures for the IC50 on JAK2 (JAK2 Kinase Inhibition) and on ALK (ALK Kinase Inhibition) were 0.1 to 1 µM and under 0.1 µM, respectively.

Consider `Clc1cccc(-c2ccc3cnc(Nc4ccc(N5CCOCC5)cc4)nn23)c1` [Example 1, [7-(3-Chloro-phenyl)-pyrrolo[2,1-f][1,2,4]triazin-2-yl]-(4-morpholin-4-yl-phenyl)-amine], for which the IC50 was under 0.1 µM on JAK2 (JAK2 Kinase Inhibition) and over 10 µM at ALK (ALK Kinase Inhibition).

With `c1ccc(-c2ccc3cnc(Nc4ccc(N5CCOCC5)cc4)nn23)cc1` [Example 2, (4-Morpholin-4-yl-phenyl)-(7-phenyl-pyrrolo[2,1-f][1,2,4]triazin-2-yl)amine], the results for the IC50 on JAK2 (JAK2 Kinase Inhibition) and on ALK (ALK Kinase Inhibition) were under 0.1 µM and 0.1 to 1 µM, respectively.

Regarding `COc1ccc(Cl)cc1-c1ccc2cnc(Nc3ccc(N4CCOCC4)cc3)nn12` [Example 3, [7-(5-Chloro-2-methoxy-phenyl)-pyrrolo[2,1-f][1,2,4]triazin-2-yl]-(4-morpholin-4-yl-phenyl)-amine], the IC50 is under 0.1 µM at JAK2 (JAK2 Kinase Inhibition) and 0.1 to 1 µM at ALK (ALK Kinase Inhibition).

As to `c1cc(-c2ccc3cnc(Nc4ccc(N5CCOCC5)cc4)nn23)ccn1` [Example 4, (4-Morpholin-4-yl-phenyl)-(7-pyridin-4-yl-pyrrolo[2,1-f][1,2,4]triazin-2-yl)-amine], the figures for the IC50 at JAK2 (JAK2 Kinase Inhibition) and at ALK (ALK Kinase Inhibition) were under 0.1 µM and 1 to 10 µM, respectively.

As to `c1cc(N2CCOCC2)ccc1Nc1ncc2ccc(-c3ccc4c(c3)OCCO4)n2n1` [Example 5, [7-(2,3-Dihydro-benzo[1,4]dioxin-6-yl)-pyrrolo[2,1-f][1,2,4]triazin-2-yl]-(4-morpholin-4-yl-phenyl)-amine], the IC50 on JAK2 (JAK2 Kinase Inhibition) is under 0.1 µM; at ALK (ALK Kinase Inhibition) it was 1 to 10 µM.

For the molecule `COC(=O)c1cccc(-c2ccc3cnc(Nc4ccc(N5CCOCC5)cc4)nn23)c1` [Example 6, 3-[2-(4-Morpholin-4-yl-phenylamino)-pyrrolo[2,1-f][1,2,4]triazin-7-yl]-benzoic acid methyl ester], the IC50 at JAK2 (JAK2 Kinase Inhibition) was under 0.1 µM; at ALK (ALK Kinase Inhibition) it was over 10 µM.

For `CN1CCN(c2ccc(Nc3ncc4ccc(-c5ccccc5)n4n3)cc2)CC1` [Example 7, [4-(4-Methyl-piperazin-1-yl)-phenyl]-(7-phenyl-pyrrolo[2,1-f][1,2,4]triazin-2-yl)-amine], the IC50 on JAK2 (JAK2 Kinase Inhibition) and on ALK (ALK Kinase Inhibition) was under 0.1 µM each time.

Turning to `CN1CCN(c2ccc(Nc3ncc4ccc(-c5ccc6c(c5)OCCO6)n4n3)cc2)CC1` [Example 8, [7-(2,3-Dihydro-benzo[1,4]dioxin-6-yl)-pyrrolo[2,1-f][1,2,4]triazin-2-yl]-[4-(4-methyl-piperazin-1-yl)-phenyl]-amine], the IC50 at JAK2 (JAK2 Kinase Inhibition) and on ALK (ALK Kinase Inhibition) was under 0.1 µM in each case.

`COCCN1CCc2ccc(Nc3ncc4ccc(-c5ccccc5)n4n3)cc2CC1` [Example 9, [3-(2-Methoxy-ethyl)-2,3,4,5-tetrahydro-1H-benzo[d]azepin-7-yl]-(7-phenyl-pyrrolo[2,1-f][1,2,4]triazin-2-yl)-amine]: the IC50 at JAK2 (JAK2 Kinase Inhibition) and at ALK (ALK Kinase Inhibition) was under 0.1 µM each time.

Take `Cn1cc(-c2ccc3cnc(Nc4ccc(N5CCOCC5)cc4)nn23)cn1` [Example 10, [7-(1-Methyl-1H-pyrazol-4-yl)-pyrrolo[2,1-f][1,2,4]triazin-2-yl]-(4-morpholin-4-yl-phenyl)-amine]: the IC50 is under 0.1 µM at JAK2 (JAK2 Kinase Inhibition) and 1 to 10 µM at ALK (ALK Kinase Inhibition).

As for `c1cncc(-c2ccc3cnc(Nc4ccc(N5CCOCC5)cc4)nn23)c1` [Example 11, (4-Morpholin-4-yl-phenyl)-(7-pyridin-3-yl-pyrrolo[2,1-f][1,2,4]triazin-2-yl)-amine], the IC50 at JAK2 (JAK2 Kinase Inhibition) is under 0.1 µM; at ALK (ALK Kinase Inhibition) it was 1 to 10 µM.

Take `c1ccc(-c2ccc3cnc(NCc4cccnc4)nn23)cc1` [Example 12, (7-Phenyl-pyrrolo[2,1-f][1,2,4]triazin-2-yl)-pyridin-3-ylmethyl-amine]: the IC50 on JAK2 (JAK2 Kinase Inhibition) and on ALK (ALK Kinase Inhibition) was 1 to 10 µM throughout.

As for `COc1cc(Nc2ncc3ccc(-c4ccccc4)n3n2)cc(OC)c1OC` [Example 13, (7-Phenyl-pyrrolo[2,1-f][1,2,4]triazin-2-yl)-(3,4,5-trimethoxy-phenyl)amine], the IC50 at JAK2 (JAK2 Kinase Inhibition) was under 0.1 µM; on ALK (ALK Kinase Inhibition) it was 0.1 to 1 µM.

Turning to `O=C(c1ccc(-c2ccc3cnc(Nc4ccc(N5CCOCC5)cc4)nn23)cc1)N1CCOCC1` [Example 14, Morpholin-4-yl-{4-[2-(4-morpholin-4-yl-phenylamino)-pyrrolo[2,1-f][1,2,4]triazin-7-yl]-phenyl}-methanone], the IC50 on JAK2 (JAK2 Kinase Inhibition) was under 0.1 µM; at ALK (ALK Kinase Inhibition), 0.1 to 1 µM.

With `O=C(c1cccc(-c2ccc3cnc(Nc4ccc(N5CCOCC5)cc4)nn23)c1)N1CCCC1` [Example 15, {3-[2-(4-Morpholin-4-yl-phenylamino)-pyrrolo[2,1-f][1,2,4]triazin-7-yl]-phenyl}-pyrrolidin-1-yl-methanone], the IC50 is under 0.1 µM at JAK2 (JAK2 Kinase Inhibition) and 0.1 to 1 µM on ALK (ALK Kinase Inhibition).

`COc1ncccc1-c1ccc2cnc(Nc3ccc(N4CCOCC4)cc3)nn12` [Example 16, [7-(2-Methoxy-pyridin-3-yl)-pyrrolo[2,1-f][1,2,4]triazin-2-yl]-(4-morpholin-4-yl-phenyl)-amine]: the IC50 is under 0.1 µM on JAK2 (JAK2 Kinase Inhibition) and 0.1 to 1 µM at ALK (ALK Kinase Inhibition).

As to `COc1ccc(Cl)cc1-c1ccc2cnc(Nc3ccc(N4CCN(C)CC4)cc3)nn12` [Example 17, [7-(5-Chloro-2-methoxy-phenyl)-pyrrolo[2,1-f][1,2,4]triazin-2-yl]-[4-(4-methyl-piperazin-1-yl)-phenyl]-amine], the IC50 at JAK2 (JAK2 Kinase Inhibition) and at ALK (ALK Kinase Inhibition) was under 0.1 µM in each case.

As to `CN1CCN(c2ccc(Nc3ncc4ccc(-c5cnn(C)c5)n4n3)cc2)CC1` [Example 18, [4-(4-Methyl-piperazin-1-yl)-phenyl]-[7-(1-methyl-1H-pyrazol-4-yl)-pyrrolo[2,1-f][1,2,4]triazin-2-yl]-amine], the IC50 at JAK2 (JAK2 Kinase Inhibition) is under 0.1 µM; at ALK (ALK Kinase Inhibition), 0.1 to 1 µM.

For `CN1CCN(c2ccc(Nc3ncc4ccc(-c5ccc(C(=O)N6CCOCC6)cc5)n4n3)cc2)CC1` [Example 19, (4-{2-[4-(4-Methyl-piperazin-1-yl)-phenylamino]-pyrrolo[2,1-f][1,2,4]triazin-7-yl}-phenyl)-morpholin-4-yl-methanone], the IC50 is under 0.1 µM at JAK2 (JAK2 Kinase Inhibition) and 0.1 to 1 µM at ALK (ALK Kinase Inhibition).

For `CN1CCN(c2ccc(Nc3ncc4ccc(-c5cccc(C(=O)N6CCCC6)c5)n4n3)cc2)CC1` [Example 21, (3-{2-[4-(4-Methyl-piperazin-1-yl)-phenylamino]-pyrrolo[2,1-f][1,2,4]triazin-7-yl}-phenyl)-pyrrolidin-1-yl-methanone], the IC50 at JAK2 (JAK2 Kinase Inhibition) is under 0.1 µM; on ALK (ALK Kinase Inhibition), 0.1 to 1 µM.

For the molecule `COc1ncccc1-c1ccc2cnc(Nc3ccc(N4CCN(C)CC4)cc3)nn12` [Example 22, [7-(2-Methoxy-pyridin-3-yl)-pyrrolo[2,1-f][1,2,4]triazin-2-yl]-[4-(4-methyl-piperazin-1-yl)-phenyl]-amine], the IC50 at JAK2 (JAK2 Kinase Inhibition) and at ALK (ALK Kinase Inhibition) was under 0.1 µM throughout.

In the case of `CN1CCN(c2ccc(Nc3ncc4ccc(Nc5ccccc5)n4n3)cc2)CC1` [Example 24, N(2)-[4-(4-Methyl-piperazin-1-yl)-phenyl]-N(7)-phenyl-pyrrolo[2,1-f][1,2,4]triazine-2,7-diamine], the figures for the IC50 at JAK2 (JAK2 Kinase Inhibition) and at ALK (ALK Kinase Inhibition) were under 0.1 µM and 1 to 10 µM, respectively.
